Literature values in patent US7943663B2, “Process and an apparatus for producing episesamin-rich compositions” (Suntory Holdings Limited, priority 2005, dated 2011).

Columns and labels:
[1] = system: β-oxidation enzymes in the liver; settings: rats, separately administered orally; compared with sesamin
[2] = rat, po
[3] = system: fatty acid synthases; settings: rats, separately administered orally; sesamin versus episesamin

## c1cc2c(cc1[C@H]1OC[C@H]3[C@@H]1CO[C@H]3c1ccc3c(c1)OCO3)OCO2 [Episesamin, episesamin]
[1]
  gene expression and enzymatic activity of β-oxidation enzymes in the liver: markedly increased
[2]
  transfer into organs (in vivo distribution): at least twice as much as that of sesamin
[3]
  activity for inhibiting fatty acid synthases: no difference

## c1cc2c(cc1[C@H]1OC[C@H]3[C@@H]1CO[C@@H]3c1ccc3c(c1)OCO3)OCO2 [Sesamin, sesamin]
[3]
  activity for inhibiting fatty acid synthases: no difference
